In PubChem BioAssay AID602210 (Sanford-Burnham Center for Chemical Genomics, 2012):
The source made the active and inactive calls. No rule for the calls is given here.

Experiment: H9c2 cardiomyoblast viability modulators under 2-DG – cell-based, ATPlite luminescence, rat, set 2, myocardial damage modulator project, dose response (AID 602210)
Settings: H9c2 rat cardiomyoblasts, 2-deoxyglucose-induced death, 2 h

| Compound | IC50 |
| --- | --- |
| COc1cc(-c2cc(C(=O)N3CCN(c4ccccn4)CC3)c3ccccc3n2)cc(OC)c1OC | 26.2 µM (inactive) |
| CCOc1ccc(S(=O)(=O)N(C)CCO)cc1-c1nc2c(C(C)(C)C)nn(C)c2c(=O)[nH]1 | 33.2 µM (inactive) |
| Cc1cc(C)c(C)c(S(=O)(=O)N2CCN(C(=O)c3cc(=O)[nH]c4ccccc34)CC2)c1C | 5.01 µM |
| Cc1ncc(CO)c2c1Oc1nc(-c3ccccc3)nc(SCC(=O)N3CCCCC3)c1C2 | > 79 µM (inactive) |
| CC(=O)NCc1ccc(-c2csc(NC(=O)CCc3nc4ccccc4c(=O)[nH]3)n2)s1 | 28.5 µM (inactive) |
| COc1ccc(-c2cc(C(=O)NNC(=O)c3csc(N4CCOCC4)n3)c3ccccc3n2)cc1 | 7.31 µM |
| Nc1c(C(=O)N/N=C/c2cccnc2)oc2nc(-c3ccccc3)cc(-c3ccco3)c12 | 3.52 µM |
| COc1cccc(C(=O)Nc2cccc(-c3nnc(-c4ccco4)o3)c2)c1 | 12.6 µM (inactive) |
| CCN(C[C@H]1N[C@@](Cc2ccccc2)(C(=O)OC)[C@H]2C(=O)N(C)C(=O)[C@@H]12)S(=O)(=O)c1ccc(OC)cc1 | > 79 µM (inactive) |
| COc1cccc(C(=O)Nc2cc(C)c3c(=O)oc4ccccc4c3n2)c1 | > 79 µM (inactive) |
| CCCN1C(=O)c2cc(C(=O)Nc3cccc(C(C)=O)c3)ccc2C1Nc1cccc(C(C)=O)c1 (centres undefined) | 13.7 µM (inactive) |
| CCOC(=O)N1CCc2c(sc(NC(=O)CN3CCOCC3)c2C(=O)Nc2ccccc2)C1 | > 79 µM (inactive) |
| CC(C)(C)NC(=O)COC(=O)c1c2c(nc3ccccc13)CCC2 | 16.7 µM (inactive) |
| COc1cc(/C=N/n2nnnc2Nc2ccccc2)cc(OC)c1OC | 38.1 µM (inactive) |
